# Reference: patent publication US20240124442A1, “TRICYCLIC-AMIDO-BICYCLIC PRMT5 INHIBITORS” (AMGEN INC., priority 2021, published 2024)
# pIC50: −log10 of the molar value.
# Key:
# HCT116 MTAP null cells = assay: HCT116 MTAP null cell line proliferation / cell viability (CellTiter-Glo, 6 days); type: cell-based; details: 144 h; HCT116 MTAP null cells, 6 days treatment, CellTiter-Glo cell viability; read-out: HCT-116 MTAP null IC50
# Outline: (§1)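 Isogenic HCT116 pair (parental and MTAP-knockout) in RPMI 1640 + 10% FBS, treated 6 days with 8–9-point 1:3 dilutions from 1 or 10 μM top, or 22-point 1:2 dilutions from 10 or 50 μM top. Viability by CellTiter-Glo luminescence; IC50 from 4-parameter logistic fit or sigmoidal fit with Hill slope fixed at −1.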
# HCT116 WT cells = assay: HCT116 WT (parent) cell line proliferation / cell viability (CellTiter-Glo, 6 days); type: cell-based; details: Homo sapiens, HCT-116, 144 h, 6 days treatment
# Outline: as §1
pIC50 (HCT116 MTAP null cells),pIC50 (HCT116 WT cells),Compound
7.15,5.29,"Cc1n[nH]c2c1c(N)nc1cnc(C(=O)N(C)[C@@H]3COc4cc(C(F)(F)F)ccc43)cc12 [Example 264, 4-amino-N,3-dimethyl-N-((3S)-6-(trifluoromethyl)-2,3-dihydro-1-benzofuran-3-yl)-1H-pyrazolo[4,3-c][1,7]naph-thyridine-8-carboxamide]"
6.82,5.41,"Cc1nn(C)c2c1c(N)nc1cnc(C(=O)N(C)[C@@H]3COc4cc(C(F)(F)F)ccc43)cc12 [Example 265, 4-amino-N,1,3-trimethyl-N-((3S)-6-(trifluoromethyl)-2,3-dihydro-1-benzofuran-3-yl)-1H-pyrazolo[4,3-c][1,7]-naphthyridine-8-carboxamide]"
7.15,5.58,"Cc1nn(C)c2c1c(N)nc1cnc(C(=O)N(C)[C@@H]3COc4cc(S(F)(F)(F)(F)F)ccc43)cc12 [Example 266, 4-amino-N,1,3-trimethyl-N-((3S)-6-(pentafluoro-lambda~6~-sulfanyl)-2,3-dihydro-1-benzofuran-3-yl)-1H-pyrazolo[4,3-c][1,7]naph-thyridine-8-carboxamide]"
7.44,5.70,"Cc1nn(C)c2c1c(N)nc1cc(F)c(C(=O)N(C)[C@@H]3COc4cc(C(F)(F)F)ccc43)cc12 [Example 267, 4-amino-7-fluoro-N,1,3-trimethyl-N-((3S)-6-(trifluoro-methyl)-2,3-dihydro-1-benzo-furan-3-yl)-1H-pyrazolo[4,3-c]quinoline-8-carboxamide]"
7.33,5.07,Cc1nn(C)c2c1c(N)nc1cc(F)c(C(=O)N(C)[C@@H]3COc4cc(-c5cnn(C(F)(F)F)c5)ccc43)cc12 [Example 268]
7.41,5.53,"COc1ccc2c(c1)COC[C@H]2N(C)C(=O)c1cc2c3c(c(N)nc2cn1)[C@@H](C)OC3 [Example 269, (3R)-4-amino-N-((4S)-7-methoxy-3,4-dihydro-1H-2-benzopyran-4-yl)-N,3-dimeth-yl-1,3-dihydrofuro[3,4-c][1,7]-naphthyridine-8-carboxamide]"
7.77,6.13,"C[C@H]1OCc2c1c(N)nc1cnc(C(=O)N(C)[C@@H]3COCc4nc(C(F)(F)F)ccc43)cc21 [Example 270, (3R)-4-amino-N,3-dimethyl-N-((5S)-2-(trifluoromethyl)-5,8-dihydro-6H-pyrano[3,4-b]-pyridin-5-yl)-1,3-dihydrofuro-[3,4-c][1,7]naphthyridine-8-carboxamide]"
6.02,4.50,"C[C@@H]1OCc2c1c(N)nc1cnc(C(=O)N(C)[C@@H]3COCc4nc(C(F)(F)F)ccc43)cc21 [Example 271, (3S)-4-amino-N,3-dimethyl-N-((5S)-2-(trifluoromethyl)-5,8-dihydro-6H-pyrano[3,4-b]-pyridin-5-yl)-1,3-dihydrofuro-[3,4-c][1,7]naphthyridine-8-carboxamide]"
8.40,6.64,"CN(C(=O)c1cc2c3c(c(N)nc2cc1Cl)COC3)[C@@H]1COCc2nc(C(F)(F)F)ccc21 [Example 274, 4-amino-7-chloro-N-methyl-N-((5S)-2-(trifluoromethyl)-5,8-dihydro-6H-pyrano[3,4-b]-pyridin-5-yl)-1,3-dihydrofuro-[3,4-c]quinoline-8-carboxamide]"
7.08,5.57,"CN(C(=O)c1cc2c3c(c(N)nc2nc1Cl)COC3)[C@@H]1COCc2cc(C#N)ccc21 [Example 275, 4-amino-7-chloro-N-((4S)-7-cyano-3,4-dihydro-1H-2-benzopyran-4-yl)-N-methyl-1,3-dihydrofuro[3,4-c][1,8]-naphthyridine-8-carboxamide]"
7.80,6.38,"CN(C(=O)c1cc2c3c(c(N)nc2nc1Cl)COC3)[C@@H]1COCc2cc(C(F)(F)F)ccc21 [Example 276, 4-amino-7-chloro-N-methyl-N-((4S)-7-(trifluoromethyl)-3,4-dihydro-1H-2-benzopyran-4-yl)-1,3-dihydrofuro[3,4-c][1,8]-naphthyridine-8-carboxamide]"
8.30,6.69,"Cc1cc2nc(N)c3c(c2cc1C(=O)N(C)[C@@H]1COCc2nc(C(F)(F)F)ccc21)COC3 [Example 277, 4-amino-N,7-dimethyl-N-((5S)-2-(trifluoromethyl)-5,8-dihydro-6H-pyrano[3,4-b]pyridin-5-yl)-1,3-dihydrofuro[3,4-c]quin-oline-8-carboxamide]"
7.25,5.37,"CN(C(=O)c1cc2c3c(c(N)nc2cc1C(F)(F)F)COC3)[C@@H]1COCc2nc(C(F)(F)F)ccc21 [Example 278, 4-amino-N-methyl-7-(trifluoro-methyl)-N-((5S)-2-(trifluoro-methyl)-5,8-dihydro-6H-pyrano[3,4-b]pyridin-5-yl)-1,3-dihydrofuro[3,4-c]quinoline-8-carboxamide]"
7.77,6.15,"CN(C(=O)c1ccc2nc(N)c3ccncc3c2c1)[C@@H]1COCc2nc(C(F)(F)F)ccc21 [Example 279, 5-amino-N-methyl-N-((5S)-2-(trifluoromethyl)-5,8-dihydro-6H-pyrano[3,4-b]pyridin-5-yl)benzo[c][2,6]naphthyridine-9-carboxamide]"
6.34,5.30,"CN(C(=O)c1ccc2nc(N)c3ncncc3c2c1)[C@@H]1COCc2nc(C(F)(F)F)ccc21 [Example 280, 5-amino-N-methyl-N-((5S)-2-(trifluoromethyl)-5,8-dihydro-6H-pyrano[3,4-b]pyridin-5-yl)pyrimido[4,5-c]quinoline-9-carboxamide]"
7.64,6.21,"CN(C(=O)c1cc2c(cn1)nc(N)c1ccncc12)[C@@H]1COCc2nc(C(F)(F)F)ccc21 [Example 281, 5-amino-N-methyl-N-((5S)-2-(trifluoromethyl)-5,8-dihydro-6H-pyrano[3,4-b]pyridin-5-yl)pyrido[4,3-c][1,7]naph-thyridine-9-carboxamide]"
6.32,5.22,"CN(C(=O)c1cc2c(cn1)nc(N)c1ncncc12)[C@@H]1COCc2nc(C(F)(F)F)ccc21 [Example 282, 5-amino-N-methyl-N-((5S)-2-(trifluoromethyl)-5,8-dihydro-6H-pyrano[3,4-b]pyridin-5-yl)-pyrimido[4,5-c][1,7]naphthyr-idine-9-carboxamide]"
7.68,5.86,"COc1ccc2c(n1)COC[C@H]2N(C)C(=O)c1ccc2nc(N)c3cnn(C)c3c2c1 [Example 283, 4-amino-N-((5S)-2-methoxy-5,8-dihydro-6H-pyrano[3,4-b]-pyridin-5-yl)-N,1-dimethyl-1H-pyrazolo[4,3-c]quinoline-8-carboxamide]"
6.17,4.81,"COc1ccc2c(n1)COC[C@@H]2N(C)C(=O)c1ccc2nc(N)c3cnn(C)c3c2c1 [Example 284, 4-amino-N-((5R)-2-methoxy-5,8-dihydro-6H-pyrano[3,4-b]-pyridin-5-yl)-N,1-dimethyl-1H-pyrazolo[4,3-c]quinoline-8-carboxamide]"
6.01,4.50,"CCOc1ncc2c(n1)COC[C@H]2N(C)C(=O)c1ccc2nc(N)c3cnn(C)c3c2c1 [Example 285, 4-amino-N-((5S)-2-ethoxy-5,8-dihydro-6H-pyrano[3,4-d]-pyrimidin-5-yl)-N,1-dimethyl-1H-pyrazolo[4,3-c]quinoline-8-carboxamide]"
